Data published in patent US20240116985A1, “STAPLED PEPTIDES AND METHODS THEREOF” (priority 2020, published 2024).
Read-outs that look alike come from different tables or passages of the source.

Biological target: T1, full-length beta-Catenin (Uniprot ID P35222) (Homo sapiens, UniProt P35222)
T1 construct: 10 nM full-length beta-Catenin (Uniprot ID P35222)
T1 sequence (P35222 1-781): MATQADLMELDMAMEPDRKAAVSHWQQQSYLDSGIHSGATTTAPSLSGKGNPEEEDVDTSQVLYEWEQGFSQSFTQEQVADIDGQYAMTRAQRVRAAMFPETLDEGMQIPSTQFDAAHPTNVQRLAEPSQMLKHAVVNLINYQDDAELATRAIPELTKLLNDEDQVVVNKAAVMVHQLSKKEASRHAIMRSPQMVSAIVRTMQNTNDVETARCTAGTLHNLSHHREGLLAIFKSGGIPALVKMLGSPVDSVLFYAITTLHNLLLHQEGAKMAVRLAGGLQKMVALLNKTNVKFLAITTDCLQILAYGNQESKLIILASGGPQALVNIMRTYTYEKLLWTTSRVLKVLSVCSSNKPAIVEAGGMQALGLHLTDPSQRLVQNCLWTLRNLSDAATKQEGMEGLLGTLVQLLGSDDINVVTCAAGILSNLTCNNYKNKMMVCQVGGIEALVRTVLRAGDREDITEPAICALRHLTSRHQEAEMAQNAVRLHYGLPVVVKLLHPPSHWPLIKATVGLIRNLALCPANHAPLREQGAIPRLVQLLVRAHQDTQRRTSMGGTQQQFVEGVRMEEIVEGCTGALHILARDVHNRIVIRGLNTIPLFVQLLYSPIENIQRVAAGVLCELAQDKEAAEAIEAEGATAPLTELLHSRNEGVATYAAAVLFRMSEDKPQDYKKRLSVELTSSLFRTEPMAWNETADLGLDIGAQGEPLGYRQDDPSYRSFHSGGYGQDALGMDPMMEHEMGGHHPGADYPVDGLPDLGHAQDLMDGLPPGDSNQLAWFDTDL
Assay: Fluorescence polarization IC50 (beta-catenin / 5FAM-TCF4 10-53 competition)
Format: binding
Conditions: fluorescence polarization

How did the IC50 (read-out: beta-Catenin FP IC50) turn out when CC(=O)N1CCC[C@]12CC=CCCCC1(CCCC=CCCCOC(=O)N3CC[C@@](C(=O)N[C@@H](Cc4ccccc4)C(=O)N[C@@H](Cc4csc5ccccc45)C(=O)N[C@@H](CCCN4CCOCC4)C(N)=O)(C3)NC(=O)[C@H](CC(C)C)NC(=O)[C@H](Cc3ccccc3)NC(=O)[C@H](C)NC(=O)[C@H](CCCCNC(C)C)NC(=O)[C@H](CCC(N)=O)NC(=O)[C@H](CC(=O)O)NC1=O)NC(=O)[C@H](CC1CCCCC1)NC(=O)[C@H](CC(N)=O)NC2=O (stereo partly drawn) [I-2428, Ac-PL3-Asn-Cha-B5-Asp-Gln-iPrLys-Ala-Phe-Leu-PyrS2-Phe-BztA-MorphNva-NH2] was run?
The IC50 was 401 nM.

With CC(=O)N1CCC[C@H]1C(=O)N[C@@H](CC(=O)O)C(=O)N[C@@H](CC(C)(C)C)C(=O)N[C@]1(C)CC=CCCCOC(=O)N2CC[C@@](C(=O)N[C@@H](Cc3ccsc3)C(=O)N[C@@H](Cc3csc4ccccc34)C(=O)N[C@@H](CCC(N)=O)C(N)=O)(C2)NC(=O)[C@H](CC(C)C)NC(=O)[C@H](Cc2ccccc2)NC(=O)[C@H](C)NC(=O)[C@H](C)NC(=O)[C@H](CC(=O)O)NC(=O)[C@H](CC(=O)O)NC1=O [I-1990, Ac-Pro-Asp-Npg-R3-Asp-Asp-Ala-Ala-Phe-Leu-PyrS2-3Thi-BztA-Gln-NH2] as the compound, how does the IC50 (read-out: beta-Catenin FP IC50) read?
Its IC50 is 585 nM.

CC(=O)N1CCC[C@]12CC=CCCCC1(CCCC=CCCCOC(=O)N3CC[C@@](C(=O)N[C@@H](Cc4ccsc4)C(=O)N[C@@H](Cc4csc5ccccc45)C(=O)N[C@@H](CCC(N)=O)C(N)=O)(C3)NC(=O)[C@H](CC(C)C)NC(=O)C(Cc3cccc(C(=O)Oc4ccccc4)c3)NC(=O)[C@H](C)NC(=O)[C@H](C)NC(=O)[C@H](CN(CC(=O)O)CC(F)(F)F)NC(=O)[C@H](CC(=O)O)NC1=O)NC(=O)[C@H](CC(C)(C)C)NC(=O)[C@H](CC(=O)O)NC2=O (single isomer, unassigned) [I-2150, Ac-PL3-Asp-Npg-B5-Asp-TfeGA-Ala-Ala-3CO2PhF-Leu-PyrS2-3Thi-BztA-Gln-NH2] was tested. Which IC50 (read-out: beta-Catenin FP IC50) did it give?
Its IC50 is 647 nM.

With CC(=O)N1CCC[C@]12CC=CCCCC1(CCCC=CCCCOC(=O)N3CC[C@@](C(=O)N[C@@H](Cc4ccccc4)C(=O)N[C@@H](Cc4csc5ccccc45)C(=O)N[C@@H](CCO)C(N)=O)(C3)NC(=O)[C@H](CC(C)C)NC(=O)[C@H](Cc3ccccc3)NC(=O)[C@H](C)NC(=O)[C@H](CCCCNC(C)C)NC(=O)[C@H](CCC(N)=O)NC(=O)[C@H](CC(=O)O)NC1=O)NC(=O)[C@H](CC1CCCCC1)NC(=O)[C@H](CC(N)=O)NC2=O (stereo partly drawn) [I-2165, Ac-PL3-Asn-Cha-B5-Asp-Gln-iPrLys-Ala-Phe-Leu-PyrS2-Phe-BztA-Hse-NH2] as the compound, how does the IC50 (read-out: beta-Catenin FP IC50) read?
Its IC50 is 441 nM.

Which IC50 (read-out: beta-Catenin FP IC50) does the source give for CC(=O)N1CCC[C@]12CCCCCCC1(CCCCCCCCOC(=O)N3CC[C@@](C(=O)N[C@@H](Cc4ccsc4)C(=O)N[C@@H](Cc4csc5ccccc45)C(=O)N[C@H](C(N)=O)[C@@H](C)O)(C3)NC(=O)[C@H](CC(C)C)NC(=O)[C@H](Cc3ccccc3)NC(=O)[C@H](C)NC(=O)[C@H](C)NC(=O)[C@H](CN(CC(=O)O)CC(F)(F)F)NC(=O)[C@H](CC(=O)O)NC1=O)NC(=O)[C@H](CC(C)(C)C)NC(=O)[C@H](CC(=O)O)NC2=O (stereo partly drawn) [I-1716, Ac-PL3-Asp-Npg-B5-Asp-TfeGA-Ala-Ala-Phe-Leu-PyrS2-3Thi-BztA-Thr-NH2] here?
The IC50 was 224 nM.

For CC(=O)N1CCC[C@H]1C(=O)N[C@]1(C)CCCC=CCCCC2(CCCC=CCCCOC(=O)N3CC[C@@](C(=O)N[C@@H](Cc4ccccc4C(F)(F)F)C(=O)N[C@@H](Cc4csc5ccccc45)C(=O)N[C@@H](CCC(N)=O)C(N)=O)(C3)NC(=O)[C@H](CC(C)C)NC(=O)[C@H](Cc3ccccc3)NC(=O)[C@H](C)NC(=O)[C@H](C)NC(=O)[C@H](Cc3cccc(C(=O)O)c3)NC(=O)[C@H](CC(=O)O)NC2=O)NC(=O)[C@H](CC(C)(C)C)NC(=O)[C@H](CC(=O)O)NC(=O)[C@H](CCC(=O)O)NC1=O (stereo partly drawn) [I-2575, Ac-Pro-R5-Glu-Asp-Npg-B5-Asp-3COOHF-Ala-Ala-Phe-Leu-PyrS2-2F3MeF-BztA-Gln-NH2], which IC50 (read-out: beta-Catenin FP IC50) is on record?
Its IC50 is 8160 nM.

With CC(=O)N1CCC[C@]12CC=CCCCC1(CCCC=CCCCOC(=O)N3CC[C@@](C(=O)N[C@@H](Cc4ccccc4)C(=O)N[C@@H](Cc4csc5ccccc45)C(=O)N[C@@H](CCC(N)=O)C(N)=O)(C3)NC(=O)[C@H](CC(C)C)NC(=O)[C@H](Cc3ccccc3)NC(=O)[C@H](C)NC(=O)[C@H](CCCCNC(C)C)NC(=O)[C@H]([C@@H](C)O)NC(=O)[C@H](CC(=O)O)NC1=O)NC(=O)[C@H](CC(C)C)NC(=O)[C@H](CC(N)=O)NC2=O (stereo partly drawn) [I-1582, Ac-PL3-Asn-Leu-B5-Asp-Thr-iPrLys-Ala-Phe-Leu-PyrS2-Phe-BztA-Gln-NH2] as the compound, how does the IC50 (read-out: beta-Catenin FP IC50) read?
Its IC50 is 1220 nM.

For CC(=O)N1CCC[C@]12CC=CCCCC1(CCCC=CCCCOC(=O)N3CC[C@@](C(=O)N[C@@H](Cc4cccc(C5CC5)c4)C(=O)N[C@@H](Cc4ccccc4)C(=O)N[C@@H](CCC(N)=O)C(N)=O)(C3)NC(=O)[C@H](CC(C)C)NC(=O)[C@H](Cc3ccccc3)NC(=O)[C@H](C)NC(=O)[C@H](C)NC(=O)[C@H](Cc3cccc(C(=O)O)c3)NC(=O)[C@H](CC(=O)O)NC1=O)NC(=O)[C@H](CC(C)(C)C)NC(=O)[C@H](CC(=O)O)NC2=O (stereo partly drawn) [I-2215, Ac-PL3-Asp-Npg-B5-Asp-3COOHF-Ala-Ala-Phe-Leu-PyrS2-[CyPr]-3SF-Phe-Gln-NH2], which IC50 (read-out: beta-Catenin FP IC50) is on record?
Its IC50 is 1540 nM.

CC(=O)N1CCC[C@]12CC=CCCCC1(CCCC=CCCCOC(=O)N3CC[C@@](C(=O)N[C@@H](Cc4ccsc4)C(=O)N[C@@H](Cc4csc5ccccc45)C(=O)N[C@@H](CCC(N)=O)C(N)=O)(C3)NC(=O)[C@H](CC(N)=O)NC(=O)[C@H](Cc3ccccc3)NC(=O)[C@H](C)NC(=O)[C@H](C)NC(=O)[C@H](CN(CC(=O)O)CC(F)(F)F)NC(=O)[C@H](CC(=O)O)NC1=O)NC(=O)[C@H](CC(C)(C)C)NC(=O)[C@H](CC(=O)O)N(C)C2=O (stereo partly drawn) [I-1162, Ac-PL3-NMeD-Npg-B5-Asp-TfeGA-Ala-Ala-Phe-Asn-PyrS2-3Thi-BztA-Gln-NH2] was tested. Which IC50 (read-out: beta-Catenin FP IC50) did it give?
The IC50 was 1530 nM.

For CC(=O)N1CCC[C@]12CC=CCCCC1(CCCC=CCCCOC(=O)N3CC[C@@](C(=O)N[C@@H](Cc4ccccc4Cl)C(=O)N[C@@H](Cc4csc5ccccc45)C(=O)N[C@@H](CN4CCOCC4)C(N)=O)(C3)NC(=O)[C@H](CC(N)=O)NC(=O)[C@H](Cc3ccccc3)NC(=O)[C@H](C)NC(=O)[C@H](C)NC(=O)[C@H](CC(=O)O)NC(=O)[C@H](CC(=O)O)NC1=O)NC(=O)[C@H](CC(C)(C)C)NC(=O)[C@H](CC(=O)O)NC2=O (stereo partly drawn) [I-1134, Ac-PL3-Asp-Npg-B5-Asp-Asp-Ala-Ala-Phe-Asn-PyrS2-2C1F-BztA-MorphAla-NH2], which IC50 (beta-catenin, read-out: FP EC50) is on record?
The IC50 was 6 nM.

And the IC50 (read-out: beta-Catenin FP IC50)?
The IC50 was 6 nM.

For CC(=O)N1CCC[C@]12CC=CCCCC1(CCCC=CCCCOC(=O)N3CC[C@@](C(=O)N[C@@H](Cc4ccccc4)C(=O)N[C@@H](Cc4csc5ccccc45)C(=O)N[C@@H](CCO)C(N)=O)(C3)NC(=O)[C@H](CC(N)=O)NC(=O)[C@H](Cc3cccc(C(N)=O)c3)NC(=O)[C@H](C)NC(=O)[C@H](CCCCNC(C)C)NC(=O)[C@H](CCC(N)=O)NC(=O)[C@H](CC(=O)O)NC1=O)NC(=O)[C@H](CC1CCCCC1)NC(=O)[C@H](CC(N)=O)NC2=O (stereo partly drawn) [I-1925, Ac-PL3-Asn-Cha-B5-Asp-Gln-iPrLys-Ala-3cbmf-Asn-PyrS2-Phe-BztA-Hse-NH2], which IC50 (read-out: beta-Catenin FP IC50) is on record?
Its IC50 is 475 nM.
